From ChEMBL document CHEMBL5338707, “Design, synthesis and bioactivity evaluation of favorable evodiamine derivative scaffold for developing cancer therapy” (Eur J Med Chem, 2022)
Active and inactive are the calls of the source. The calls are words filed in the database; no cut-off is given here.

What was measured:
[1] = AUC (0 to t) in rat at 50 mg/kg, ip measured at 0.25 to 24 hrs by LC-MS analysis; assay type: ADME, organism-based; set-up: dose 50 mg/kg, time upper 24 hrs, time lower 0.25 hrs, route ip; settings: in vivo
[2] = test system: MGC-803; experiment: Cell cycle arrest in human MGC-803 cells assessed as accumulation of cells at S phase at 3 nM incubated for 24 hrs by PI staining based flow cytometric analysis (Rvb =7.84%); assay type: functional
[3] = test system: SGC-7901; experiment: Antiproliferative activity against human SGC-7901 cells assessed as inhibition of colony formation at low concentration incubated for 1 to 2 weeks by crystal violet staining based analysis; assay type: functional, cell-based; settings: time 1-2 weeks
[4] = test system: SGC-7901; experiment: Induction of apoptosis in human SGC-7901 cells assessed as late apoptotic cells at 48 nM incubated for 24 hrs by AnnexinV-FITC/PI staining based flow cytometric analysis (reference value: 2.00%); assay type: functional
[5] = test system: MGC-803; experiment: Cell cycle arrest in human MGC-803 cells assessed as accumulation of cells at G2/M phase at 48 nM incubated for 24 hrs by PI staining based flow cytometric analysis (Rvb =15.42%); assay type: functional
[6] = test system: MGC-803; experiment: Antimigratory activity against human MGC-803 cells assessed as reduction in number of migrating cells at 48 nM incubated for 24 hrs by transwell migration assay relative to control; assay type: functional; set-up: scale not given: the % may be the effect or the level left
[7] = test system: MGC-803; experiment: Induction of apoptosis in human MGC-803 cells assessed as necrotic cells at 48 nM incubated for 24 hrs by AnnexinV-FITC/PI staining based flow cytometric analysis (reference value: 0.53%); assay type: functional
[8] = test system: MGC-803; experiment: Cell cycle arrest in human MGC-803 cells assessed as accumulation of cells at G2/M phase at 3 nM incubated for 24 hrs by PI staining based flow cytometric analysis (Rvb =15.42%); assay type: functional
[9] = test system: SGC-7901; experiment: Cell cycle arrest in human SGC-7901 cells assessed as accumulation of cells at S phase at 12 nM incubated for 24 hrs by PI staining based flow cytometric analysis (Rvb =18.41%); assay type: functional
[10] = test system: SGC-7901; experiment: Induction of apoptosis in human SGC-7901 cells assessed as late apoptotic cells at 96 nM incubated for 24 hrs by AnnexinV-FITC/PI staining based flow cytometric analysis (reference value: 2.00%); assay type: functional
[11] = test system: SGC-7901; experiment: Cell cycle arrest in human SGC-7901 cells assessed as accumulation of cells at G2/M phase at 3 nM incubated for 24 hrs by PI staining based flow cytometric analysis (Rvb =18.84%); assay type: functional
[12] = test system: SGC-7901; experiment: Induction of apoptosis in human SGC-7901 cells assessed as early apoptotic cells at 12 nM incubated for 24 hrs by AnnexinV-FITC/PI staining based flow cytometric analysis (reference value: 0.47%); assay type: functional
[13] = test system: MGC-803; experiment: Induction of apoptosis in human MGC-803 cells assessed as viable cells at 12 nM incubated for 24 hrs by AnnexinV-FITC/PI staining based flow cytometric analysis (reference value: 98.59%); assay type: functional; settings: read-out: Activity
[14] = test system: SGC-7901; experiment: Antiproliferation activity against human SGC-7901 cells assessed as reduction in number of dividing cells incubated for 24 hrs by EdU incorporation based assay; assay type: functional, cell-based; settings: dose 1-16 nM
[15] = test system: MGC-803; experiment: Induction of apoptosis in human MGC-803 cells assessed as necrotic cells at 96 nM incubated for 24 hrs by AnnexinV-FITC/PI staining based flow cytometric analysis (reference value: 0.53%); assay type: functional
[16] = test system: MGC-803; experiment: Induction of apoptosis in human MGC-803 cells assessed as late apoptotic cells at 12 nM incubated for 24 hrs by AnnexinV-FITC/PI staining based flow cytometric analysis (reference value: 0.52%); assay type: functional
[17] = test system: MGC-803; experiment: Induction of apoptosis in human MGC-803 cells assessed as early apoptotic cells at 96 nM incubated for 24 hrs by AnnexinV-FITC/PI staining based flow cytometric analysis (reference value: 0.38%); assay type: functional
[18] = target: T1, DNA topoisomerase 1 (Homo sapiens) (UniProt P11387); experiment: Inhibition of Topoisomerase 1 (unknown origin) at 25 uM incubated for 15 mins by electrophoretic analysis relative to control
T1 sequence (whole entry): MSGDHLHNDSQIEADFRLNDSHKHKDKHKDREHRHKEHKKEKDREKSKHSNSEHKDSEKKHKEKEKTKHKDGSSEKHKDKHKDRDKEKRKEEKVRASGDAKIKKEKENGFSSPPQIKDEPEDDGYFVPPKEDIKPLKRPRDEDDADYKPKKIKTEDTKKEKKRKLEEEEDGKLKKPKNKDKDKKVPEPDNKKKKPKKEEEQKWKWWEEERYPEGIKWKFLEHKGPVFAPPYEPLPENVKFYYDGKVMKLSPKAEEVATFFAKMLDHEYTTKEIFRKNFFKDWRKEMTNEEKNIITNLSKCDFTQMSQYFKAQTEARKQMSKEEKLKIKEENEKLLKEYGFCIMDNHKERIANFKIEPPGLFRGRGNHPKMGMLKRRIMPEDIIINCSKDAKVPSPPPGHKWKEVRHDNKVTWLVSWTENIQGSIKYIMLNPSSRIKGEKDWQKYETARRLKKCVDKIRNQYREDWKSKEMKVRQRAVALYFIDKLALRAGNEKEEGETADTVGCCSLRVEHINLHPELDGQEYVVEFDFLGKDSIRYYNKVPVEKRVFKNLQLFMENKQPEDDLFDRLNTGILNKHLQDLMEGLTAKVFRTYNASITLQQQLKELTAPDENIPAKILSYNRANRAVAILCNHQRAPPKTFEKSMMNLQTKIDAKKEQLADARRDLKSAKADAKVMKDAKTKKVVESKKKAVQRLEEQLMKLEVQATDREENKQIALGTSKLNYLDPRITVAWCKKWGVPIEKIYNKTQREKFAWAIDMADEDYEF

[19] = test system: SGC-7901; experiment: Induction of apoptosis in human SGC-7901 cells assessed as early apoptotic cells at 48 nM incubated for 24 hrs by AnnexinV-FITC/PI staining based flow cytometric analysis (reference value: 0.47%); assay type: functional
[20] = test system: SGC-7901; experiment: Cell cycle arrest in human SGC-7901 cells assessed as accumulation of cells at S phase at 3 nM incubated for 24 hrs by PI staining based flow cytometric analysis (Rvb =18.41%); assay type: functional
[21] = test system: SGC-7901; experiment: Induction of apoptosis in human SGC-7901 cells assessed as early apoptotic cells at 96 nM incubated for 24 hrs by AnnexinV-FITC/PI staining based flow cytometric analysis (reference value: 0.47%); assay type: functional
[22] = test system: MGC-803; experiment: Induction of apoptosis in human MGC-803 cells assessed as viable cells at 48 nM incubated for 24 hrs by AnnexinV-FITC/PI staining based flow cytometric analysis (reference value: 98.59%); assay type: functional; settings: read-out: Activity
[23] = test system: MGC-803; experiment: Cell cycle arrest in human MGC-803 cells assessed as accumulation of cells at G0/G1 phase at 12 nM incubated for 24 hrs by PI staining based flow cytometric analysis (Rvb =76.60%); assay type: functional
[24] = test system: SGC-7901; experiment: Antimigratory activity against human SGC-7901 cells assessed as reduction in number of migrating cells at 48 nM incubated for 24 hrs by transwell migration assay relative to control; assay type: functional; set-up: scale not given: the % may be the effect or the level left
[25] = test system: SGC-7901; experiment: Induction of apoptosis in human SGC-7901 cells assessed as viable cells at 96 nM incubated for 24 hrs by AnnexinV-FITC/PI staining based flow cytometric analysis (reference value: 96.94%); assay type: functional; settings: read-out: Activity

Row | SMILES | AUC(0-t) [1] [ng·h/mL] | Activity [2] [%] | Activity [3] | Activity [4] [%] | Activity [5] [%] | Activity [6] [%] | Activity [7] [%] | Activity [8] [%] | Activity [9] [%] | Activity [10] [%] | Activity [11] [%] | Activity [12] [%] | viability at 0.012 µM [13] [%] | Activity [14] | Activity [15] [%] | Activity [16] [%] | Activity [17] [%] | inhibition [18] [%] | Activity [19] [%] | Activity [20] [%] | further results
1 | CC(=O)Oc1ccc2[nH]c3c(c2c1)CCN1C(=O)c2cc(F)ccc2N(c2cccc(F)c2)C31 (stereo not given) | 17800 | 7.79 | Active | 14.74 | 63.34 | 38.93 | 1.51 | 13.29 | 20.39 | 23.52 | 20.47 | 1.55 | 83.9 | Dose-Dependent Effect | 1.81 | 13.03 | 16.23 | 70.5 | 2.58 | 15.57 | Activity [21]: 4.17%; viability at 0.048 µM [22]: 82.2%; Activity [23]: 75.12%; Activity [24]: 36.12%; viability at 0.096 µM [25]: 71%
2 | O=C1c2cc(F)ccc2N(c2cccc(F)c2)C2c3[nH]c4ccc(O)cc4c3CCN12 (stereo not given) | 12300 | 7.46 | Active | 8.14 | 86.57 | 36.03 | 2.36 | 15.36 | 15.73 | 26.02 | 16.45 | 0.48 | 91.2 | Dose-Dependent Effect | 3.48 | 6.48 | 1.6 | 55.1 | 1.4 | 13.44 | Activity [21]: 1.8%; viability at 0.048 µM [22]: 86.2%; Activity [23]: 73.93%; Activity [24]: 41.06%; viability at 0.096 µM [25]: 69.6%
